How the values were obtained:
[1] = system: sperm penetration in cervical mucus; assay: Modified One End Test (MOET), sperm penetration in bovine cervical mucus; format: cell-based
Source text: Bovine cervical mucus was obtained from Humagen (Charlottesville, Va.) in the form of prepackaged flat capillary tubes (Penetrak®), kept frozen and thawed right prior to the experiment. The Modified One End Test (MOET) [(described in Doncel G. F., in “Barrier Contraceptives”, Wiley-Liss, Mauck C. K. et al. eds., pp. 147-162 (1994)] was used to determine the effect of compounds, such as suramin sodium described herein, on sperm penetration in cervical mucus. Each of the test compositions containing the compound to be tested were diluted in a saline solution, i.e., at 9 grams of NaCl per liter of water. Tubes of cervical mucus were broken open. The open end was placed in a container containing the test compound in saline. The test compound was allowed to diffuse for 30 minutes through the tube. A semen sample, obtained from normal healthy donors, was then diluted with a buffer solution to 60 million motile sperm per milliliter and mixed with the test compound sample (i.e., suramin sodium). The tube containing the test compound sample was then re-inserted into the container containing the mixed solution and stored in an incubator at 37° C. in an atmosphere of 5 percent carbon dioxide in air for 60 minutes. The container and tube were then removed from the incubator and the tube was visually analyzed under a microscope for the migration of motile vanguard sperm through the tube. The results are expressed as percentage of migration as compared to control samples. In the control samples, the tubes were incubated with saline containing no compound. […]

[2] = system: sperm; assay: Sperm progressive motility dose-response and time studies, CASA; format: cell-based, human; conditions: 1-10,000 μg/mL or 5-0.07 mM

Row | Molecule | MOET % CTL ([1]; 6.25 mg/ml) [% CTL] | MOET % CTL ([1]; 12.5 mg/ml) [% CTL] | MOET % CTL ([1]; 25 mg/ml) [% CTL] | inhibition of sperm penetration in MOET ([1]; 50 mg/mL (5%)) | MOET % CTL ([1]; 50 mg/ml) [% CTL] | MOET % CTL ([1]; 30 ug/ml) [% CTL] | blocking of sperm penetration ([1]; 300 μg/mL (0.03%)) | MOET % CTL ([1]; 300 ug/ml) [% CTL] | sperm progressive motility and membrane integrity vs solvent control [2]
1 | Dextran Sulfate | 93.7 ± 1.7 | 82.4 ± 5.2 | 86.8 ± 4.4 | more inhibition than suramin sodium | 56.6 ± 8.9 |  |  |  | 
2 | CCCCCCCCCc1ccc(OCCOCCOCCOCCOCCOCCOCCOCCOCCO)cc1 [N-9, α-(4-Nonylphenyl)-ω-hydroxynona(oxyethylene)] |  |  |  |  |  | 48.6 ± 6.9 | completely blocked sperm penetration | 0.7 ± 0.5 | displayed its known sperm-immobilizing effects

Reference: patent US8552064B2, “Suramin and derivatives thereof as topical microbicide and contraceptive” (Eastern Virginia Medical School, priority 2005, dated 2013)
